The record followed here is PubChem BioAssay AID623930 (Southern Research Specialized Biocontainment Screening …, 2012).

Assay [1] has as its system Vero E6 viability, CellTiter-Glo luminescence, 96 h. The experiment in a line: viability of Vero E6 cells – cell-based, synthesized analogs, extended characterization 2, cytotoxicity control for West Nile virus antiviral project, SAR follow-up (AID 623930).
Assay in assay [2]: as above
The note with it: Vero E6 viability, CellTiter-Glo luminescence, 96 h; at 100 µM (top of the series).

Each structure is given as a SMILES string. Activity calls are given as the source filed them.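 The calls were made as follows: active = viability below 70% at one or more concentrations in every replicate; inactive = viability above 70% at all doses, or replicates disagree.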

With `O=C(CSc1nc2c(F)cccc2c(=O)n1-c1ccc(Cl)c(Cl)c1)Nc1ccc2c(c1)CCC2`, the CC50 in assay [1] was 34.5 µM.
Take `N#Cc1ccc(-n2c(SCC(=O)Nc3nc(-c4ccccc4)cs3)nc3ccccc3c2=O)cc1F`: in assay [2], the viability is 78.4% (inactive).
Turning to `O=C(CSc1nc2cccc(F)c2c(=O)n1-c1ccc(Cl)c(Cl)c1)Nc1ccc2c(c1)CCC2`, in assay [2], the viability was 71.9% (inactive).
Same read-out and setting: in the case of `O=C(CSc1nc2c(F)cccc2c(=O)n1-c1cc(Cl)cc(Cl)c1)Nc1nc(-c2ccccc2)cs1` it was 76% (inactive); in that of `O=C(CSc1nc2ccccc2c(=O)n1-c1ccc(Cl)c(F)c1)c1nc(-c2ccccc2)cs1`, 72% (inactive).
As to `Cc1cc(-n2c(SCC(=O)Nc3nc(-c4ccccc4)cs3)nc3ccccc3c2=O)ccc1F`, in assay [1], the CC50 is 87.8 µM.
Take `O=C(CSc1nc2ccccc2c(=O)n1-c1cc(F)cc(F)c1)Nc1nc(-c2ccccc2)cs1`: the CC50 in assay [1] was 82.9 µM.
Still for that read-out and setting: the same measure for `O=C(CSc1nc2c(Cl)cccc2c(=O)n1-c1cc(Cl)cc(Cl)c1)Nc1ccc2c(c1)CCC2`: 72.2 µM; for `O=C(CSc1nc2c(F)cccc2c(=O)n1-c1cc(Cl)cc(Cl)c1)Nc1ccc2c(c1)CCC2`: 77 µM; for `O=C(CSc1nc2ccccc2c(=O)n1-c1c(Cl)cccc1Cl)Nc1nc(-c2ccccc2)cs1`: 52.6 µM.
As to `O=C(CSc1nc2ccccc2c(=O)n1-c1ccc(Cl)c(Cl)c1)Nc1ccc2c(c1)CCC2`, the viability in assay [2] is 75.2% (inactive).
On the same count and under the same terms, the same measure for `O=C(CSc1nc2c(F)cccc2c(=O)n1-c1ccc(Cl)c(Cl)c1)Nc1nc(-c2ccccc2)cs1`: 73.3% (inactive).
Regarding `O=C(CSc1nc2ccccc2c(=O)n1-c1c(Cl)cccc1Cl)Nc1ccc2c(c1)CCC2`, the viability in assay [2] is 74.6% (inactive).
